{"source": "patent US20090298903A1", "about": "“USE OF TETRAMIC ACID DERIVATIVES FOR INSECT CONTROL” (priority 2006, published 2009)", "type_in_all_cases": "in vivo", "key": {"[1]": {"tested_on": "Frankliniella occidentalis", "assay": "Example 2: bell peppers against Frankliniella occidentalis", "conditions": "Acrinathrin 60, (I-9) 54, (I-4) 60 g a.s./ha, (I-9)/(I-4) 240 SC + 0.1% rapeseed oil methyl ester", "procedure": "Plots 10 m^2 in size which are planted with bell peppers cv. “Zingaro” are treated, in three replications, against Frankliniella occidentalis. The application is effected with a knapsack sprayer which is operated with pressurized air. Here, the active substances Example (I-9) (240 SC) and Example (I-4) (240 SC), in the form of a tank mix together with 0.1% a.s. rapeseed oil methyl ester (500 EW) and the commercial standard acrinathrin (075 EW), are applied at the specified application rates. Two applications are carried out at an interval of 24 days, with a water application rate of 1000 l/ha.\nThe test is evaluated 17 and 21 days after treatment 1 and 4 days after treatment 2 by scoring the destruction of the animals (nymphs) on the flowers."}, "Thrips tabaci": {"tested_on": "Thrips tabaci", "assay": "Example 11: dwarf beans against Thrips tabaci", "procedure": "Plots approx. 26 m^2 in size which are planted with dwarf beans are treated 16 days after emergence against Thrips tabaci, in four replications. The application is carried out with a knapsack sprayer which is operated with pressurized air. Here, the active substances Example (I-2) (240 SC) (I-4) (240 SC) and Example (I-9) (240 SC), in a tank mix with 0.1% a.s. rapeseed oil methyl ester (500 EW), are tested against the commercial standard Profenofos (720 EC) at the specified application rates. The water application rate is 1000 l/ha. Two applications are carried out at an interval of 10 days.\nThe test is evaluated 5 and 11 days after the first treatment by scoring the destruction rate of the nymphs on the leaves."}, "Dasineura mali": {"tested_on": "Dasineura mali", "assay": "Example 19 a): apple trees against Dasineura mali", "conditions": "59 d after treatment; larvae, apple twigs; Pirimicarb (50 WG) 125, (I-4) (100 OD) 72 g a.s./ha/m crown level", "procedure": "Apple trees cv. “Elan” which are approximately 16 years old are treated, in 3 replications, against the Dasineura mali. Here, the active substance Example (I-4) (100 OD) is tested at the specified application rate against the commercial standard and Pirimicarb (50 WG) at the specified application rate. The application is carried out with a spray diffuser. Here, the treatment is effected with a water application rate of 1000 l/ha/m crown level.\nThe test is evaluated 59 days after the treatment by scoring the destruction of the larvae on the basis of the adults present on the twigs with the aid of the Abbott method."}, "Dacus ciliatus": {"tested_on": "Dacus ciliatus", "assay": "Example 22A: bottle gourds against Dacus ciliatus", "procedure": "Plots approx. 10 m^2 in size which are planted with bottle gourds cv. “Waltham” are treated, in three replications, against Dacus ciliatus. The application is carried out with a motor-operated knapsack sprayer. Here, the active substance Example (I-4) (150 OD) and the commercial standard Fenthion (500 EC) are tested at the specified application rates. Three applications are carried out at in each case an interval of 7 days. The water application rate is approx. 500 l/ha.\nThe test is evaluated 8, 14 and 21 days after treatment 1 by scoring the infestation of the fruits."}, "[2]": {"tested_on": "Leptinotarsa decemlineata", "assay": "Example 23: potatoes against Leptinotarsa decemlineata", "procedure": "Plots approx. 10 m^2 in size which are planted with potatoes “Quarta” are treated, in three replications, against Leptinotarsa decemlineata. The application is carried out with a knapsack sprayer operated with pressurized air. Here, the active substance Example (I-4) (240 SC), in a tank mix together with 0.2% a.s. rapeseed oil methyl ester (500 EW) and the commercial standard Deltamethrin (100 EC), is tested at the specified application rate. The water application rate is 300 l/ha.\nThe test is evaluated 3, 8 and 20 days after the treatment by scoring the destruction rate of the animals (larvae) on the plants."}, "Carpocapsa pomonella": {"tested_on": "Carpocapsa pomonella", "assay": "Example 29: apple trees against Carpocapsa pomonella, fruit damage", "conditions": "application rate printed as g a.s./ha: Chlorpyrifos-methyl (25 WP) 0.1, (I-4) (240 SC + 0.1% Steffes Mero) 0.012", "procedure": "Approx. 15-year-old apple trees cv. “Golden Delicious” are treated, in four replications, against Carpocapsa pomonella. The application is carried out with an atomizer. Here, the active substance Example (I-4) (240 SC) in a tank mix together with 0.1% a.s. of the adjuvant Steffes Mero (rapeseed oil methyl ester) (733 1R) and the commercial standard Chlorpyrifos-methyl (25 WP) are tested at the specified application rates. The water application rate is 1052 l/ha. Two applications are carried out at an interval of 13 days.\nThe test is evaluated 32 days after treatment 2 by scoring the fruit damage with the aid of the Abbott formula."}, "sawflies Hoplocampa sp.": {"tested_on": "sawflies Hoplocampa sp.", "assay": "Example 31: apple trees against sawflies", "conditions": "57 d after treatment, larvae on fruits, Thiacloprid (SC 480) 48 + deltamethrin 3.75 tank mix, (I-4) (150 OD) 48 g a.s./ha/m crown level", "procedure": "Apple trees cv. “Holsteiner Cox” in plots approx. 20 m^2 in size are treated, in 4 replications, against sawflies Hoplocampa sp. Here, the active substance Example (I-4) (150 OD) at the specified application rate is tested against a tank mix of the commercial standards Thiacloprid (SC 480) and Deltamethrin-liquid in the specified application rates. The application is carried out with a knapsack sprayer. Here, the treatment is effected with a water application rate of 500 l/ha/m crown level.\nThe test is evaluated 57 days after the treatment by scoring the destruction of the larvae on the fruits with the aid of the Abbott method."}}, "data": [{"molecule": "CCOC(=O)OC1=C(c2cc(C)ccc2C)C(=O)N[C@]12CC[C@@H](OC)CC2", "note": "[Example (I-4)]", "values": [{"measurement": "Efficacy (% Abbott) 4 d (2)", "setting": "[1]; 4 d after treatment 2, nymphs on flowers", "result": 80, "unit": "% Abbott"}, {"measurement": "Efficacy (% Abbott) 17 d (1)", "setting": "[1]; 17 d after treatment 1, nymphs on flowers", "result": 71, "unit": "% Abbott"}, {"measurement": "Efficacy (% Abbott) 21 d (1)", "setting": "[1]; 21 d after treatment 1, nymphs on flowers", "result": 85, "unit": "% Abbott"}, {"measurement": "Efficacy (% Abbott) 5 d", "setting": "Thrips tabaci; 5 d after first treatment, nymphs on leaves, Profenofos (720 EC) 1300, (I-9) 54, (I-2) 54, (I-4) 60 g a.s./ha, 240 SC + 0.1% rapeseed oil methyl ester", "result": 60, "unit": "% Abbott"}, {"measurement": "Efficacy (% Abbott) 11 d", "setting": "Thrips tabaci; 11 d after first treatment (second application at 10 days), Profenofos 1300, (I-9) 54, (I-2) 54, (I-4) 60 g a.s./ha", "result": 90, "unit": "% Abbott"}, {"measurement": "Efficacy (%) Abbott 59 d", "setting": "Dasineura mali", "result": 95.1, "unit": "%"}, {"measurement": "Efficacy (% Abbott) 8 d", "setting": "Dacus ciliatus; 8 d after treatment 1, infestation of fruits, Fenthion (500 EC) 300, (I-4) (150 OD) 200 g a.s./ha, three applications, 7-day intervals", "result": 59.5, "unit": "% Abbott"}, {"measurement": "Efficacy (% Abbott) 14 d", "setting": "Dacus ciliatus; 14 d after treatment 1, Fenthion 300, (I-4) 200 g a.s./ha", "result": 48.9, "unit": "% Abbott"}, {"measurement": "Efficacy (% Abbott) 21 d", "setting": "Dacus ciliatus; 21 d after treatment 1, Fenthion 300, (I-4) 200 g a.s./ha", "result": 44.5, "unit": "% Abbott"}, {"measurement": "Efficacy (% Abbott) 3 d", "setting": "[2]; 3 d after treatment, larvae, Deltamethrin (100 EC) 75, (I-4) (240 SC + 0.2% rapeseed oil methyl ester) 72 g a.s./ha", "result": 53.3, "unit": "% Abbott"}, {"measurement": "Efficacy (% Abbott) 8 d", "setting": "[2]; 8 d after treatment, Deltamethrin 75, (I-4) 72 g a.s./ha", "result": 72.7, "unit": "% Abbott"}, {"measurement": "Efficacy (% Abbott) 20 d", "setting": "[2]; 20 d after treatment, Deltamethrin 75, (I-4) 72 g a.s./ha", "result": 84.4, "unit": "% Abbott"}, {"measurement": "Efficacy (% Abbott) 32 d after treatment 2", "setting": "Carpocapsa pomonella", "result": 73.7, "unit": "% Abbott"}, {"measurement": "Efficacy (%) Abbott 57 d", "setting": "sawflies Hoplocampa sp.", "result": 98, "unit": "%"}]}]}
